# Literature values, collected in patent publication US20080138404A1, “EXTENDED RELEASE FORMULATIONS OF CARVEDILOL” (BIOVAIL LABORATORIES INTERNATIONAL S.R.L., priority 2006, published 2008).
# What was measured:
# [1] = tested on: plasma protein, primarily albumin; details: following oral administration in healthy subjects
# [2] = man
# [3] = not given; remark: listed apart in the source
smiles,measurement,setting,value
COc1ccccc1OCCNCC(O)COc1cccc2[nH]c3ccccc3c12 (racemic) [Carvedilol],solubility,above a pH of 9.0,< 1 µg/mL
same,saturation solubility,"pH 7, room temperature",about 23 μg/ml
same,bound to plasma protein,[1],more than 98%
same,colonic absorption relative to oral administration,[2]; 25 mg carvedilol gelatin suspension,about 7%
same,relative absorption in the ileum in comparison with oral administration,[2],28%
same,relative absorption in the jejunum in comparison with oral administration,[2],56%
same,immediate release dose recovered as unchanged drug in urine,[3]; in vivo,less than 2%
same,terminal (elimination) half-life,"[3]; oral, immediate release",7 to 10 h
COc1ccccc1OCCNC[C@@H](O)COc1cccc2[nH]c3ccccc3c12 [R(+) Carvedilol],higher plasma concentration in poor metabolisers compared to extensive metabolisers,[3]; in vivo,2-3 fold
same,plasma levels of R(+) relative to S(−),"[3]; in vivo, po",2-3 times
COc1ccccc1OCCNC[C@H](O)COc1cccc2[nH]c3ccccc3c12 [S(−) Carvedilol],increase of plasma levels in poor metabolisers,[3]; in vivo,20-25%
